Assay results as given in PMC4466507, “Seneca Valley Virus 3C^pro Substrate Optimization Yields Efficient Substrates for Use in Peptide-Prodrug Therapy” (PLoS ONE, 2015).
Values joined by “and” are separate entries in the source; they are usually repeats but may differ in a detail not shown here. Equal values may be shown once.

Tests used:
SVV-001 3C^pro = molecular target: T1, SVV-001 3C^pro (Seneca Valley virus, UniProt Q155Z9); assay: FRET substrate cleavage assay with purified recombinant SVV-001 3C^pro; assay type: biochemical, Seneca Valley Virus (SVV-001); details: for kcat/KM: CyPet/YPet FRET fusion protein substrate 200 nM, PBS pH 7.4, 30°C, average of 5–7 experiments, uncertainty SD, N/A where no cleavage was measurable; for kcat/KM / cleavage by SVV-001 3C^pro (result in words): 3 h; for Relative to WT: kcat/KM relative to endogenous L/VP4 FRET substrate; for cleavage by SVV-001 3C^pro (result in words): FRET fusion protein substrate 200 nM, 30°C
T1 construct: made in house; host or cells: E. coli BL21 AI
T1 sequence (Q155Z9 1509-1719): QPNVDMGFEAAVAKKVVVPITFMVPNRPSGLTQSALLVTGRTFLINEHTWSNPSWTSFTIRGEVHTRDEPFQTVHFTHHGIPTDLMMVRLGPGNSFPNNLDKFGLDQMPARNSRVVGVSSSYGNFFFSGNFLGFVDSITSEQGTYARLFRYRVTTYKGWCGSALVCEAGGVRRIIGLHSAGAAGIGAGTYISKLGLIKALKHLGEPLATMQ
Protocol: (§1) Reactions were performed in PBS, pH 7.4 and 200 nM FRET substrate in a total volume of 100 μL. Substrates were incubated with 250 nM SVV-001 3C^pro at 30°C for 3 h. Human rhinovirus (HRV) control substrate was incubated with recombinant HRV 3C^pro under the same conditions. Fluorescence emissions at 475 nm and 527 nm, corresponding to CyPet and YPet respectively, were followed after excitation at 433 nm every 180 s by a Safire fluorimeter (Tecan). All experiments were performed in triplicate. FRET ratios (YPet fluorescence/CyPet fluorescence) were calculated at each timepoint. Conversion of each substrate to cleaved substrate was calculated by dividing the change in the FRET ratio at each timepoint by the total change in the FRET ratio corresponding to complete cleavage of the substrate. Using the equation from Boulware et al., conversion data was plotted vs. time (s) and fit with the equation: […] where [E] is the 3C^pro concentration (M) and t is time (s). The second order rate constant (k cat/K M) was determined by the curve fit using GraphPad Prism software. Reported values are the average k cat/K M values of 5–7 experiments. Uncertainty is expressed by standard deviation. Error bars on data points were removed for figure clarity.

[1] = molecular target: T2, SVV-001 3C^pro produced during SVV-001 infection of NCI-H446 cells (Seneca Valley virus, UniProt Q155Z9); assay: Fluorescently quenched peptide cellular assay (SVV-001 infected NCI-H446 cells); assay type: cell-based, Seneca Valley Virus (SVV-001); details: FQ peptide 3 μM; for cleavage (increase in fluorescence) with SVV-001 infected cells / cleavage (increase in fluorescence) with uninfected cells: 3 hours at 37°C
T2 construct: 3C^pro released during a lytic viral infection is the sole source of the 3C^pro; endogenous in cells; host or cells: NCI-H446 (human SCLC) cells infected with wild-type SVV-001 for 8 h
T2 sequence (Q155Z9 1508-1719): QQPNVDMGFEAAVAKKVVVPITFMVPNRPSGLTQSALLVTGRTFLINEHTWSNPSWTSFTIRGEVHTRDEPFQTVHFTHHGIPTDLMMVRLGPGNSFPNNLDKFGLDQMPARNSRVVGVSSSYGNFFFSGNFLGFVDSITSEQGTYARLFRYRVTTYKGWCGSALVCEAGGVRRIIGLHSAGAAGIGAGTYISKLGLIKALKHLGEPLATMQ
Protocol: (§2) All SVV-001 stocks were cultured and purified as described previously and virus titers were determined by tissue culture infective dose (TCID50). The SCLC cell line, NCI-H446 (ATCC) was cultured in RPMI 1640 media (Quality Biological) supplemented with 10% fetal bovine serum (HyClone). The cell line NCI-H446 is routinely tested and authenticated by short tandem repeat (STR) analysis by DDC Medical and was last authenticated six months before submission.
A similar cellular assay was performed as described in the previous paragraph with the exception of using the CPQ2/5-FAM L/VP4.1 and NHL fluorogenic peptides described earlier. After an 8 hour infection with SVV-001, NCI-H446 cells were removed from the cell culture dish using phenol-red free RPMI 1640 media supplemented with 0.1% ethylenediaminetetraacetic acid (EDTA, Sigma) to aid in gentle cell detachment, and pelleted via centrifugation. Pellets were resuspended in phenol-red free RPMI 1640 prior to plating in black opaque 96 well plates as above. CPQ2/5-FAM peptides, L/VP4.1 or NHL were added at a final concentration of 3 μM to plated cells and incubated for 3 hours at 37°C. Fluorescence emissions at 520 nm, corresponding to the liberated 5-FAM fluorophore peptide cleavage product was followed after excitation at 490 nm by a Synergy Neo multimode plate reader (Biotek) every 60 s. The experiment was performed in triplicate in a 96 well flat bottom black opaque plate and average fluorescence units were used to observe changes in fluorescence. Standard curves of 5-FAM fluorescence vs. concentration were generated to convert the relative fluorescence units to moles of cleaved product generated during the reaction. Initial rates of hydrolysis were calculated from data during the first 10 minutes of the reaction and averaged from 3–4 separate experiments. Uncertainty is expressed by standard deviation and shown with error bars.

Plasma stability assay = assay type: in vitro ADME; details: pooled, 50% plasma/water, peptide 20 μM, 1 hour at 37°C; for change in fluorescence relative to plasma alone: human plasma, fluorescence read-out (ex 490 nm/em 520 nm) every 60 s, triplicate
Protocol: Human plasma was obtained from pooled discarded clinical samples less than 6 hrs old. Human plasma was isolated from whole blood by centrifugation, pooled, and diluted 1:1 with distilled H2O (Gibco). The L/VP4.1 and NHL fluorogenic peptides (20 μM) were incubated with plasma for 1 h at 37°C. Fluorescence emissions were obtained as described above by a DTX 880 multimode detector ([…]) every 60 s. Experiments were performed in triplicate in a 96 well flat bottom black opaque plate and the average fluorescence units were used to observe changes in fluorescence. Uncertainty is expressed by standard deviation.

HRV 3C^pro = molecular target: T3, HRV 3C^pro (Human rhinovirus 14, UniProt P03303); assay: FRET substrate cleavage assay with recombinant HRV 3C^pro; assay type: biochemical
T3 construct: Recombinant HRV 3C Protease was purchased from Sigma; purchased Sigma
T3 sequence (P03303 1538-1719): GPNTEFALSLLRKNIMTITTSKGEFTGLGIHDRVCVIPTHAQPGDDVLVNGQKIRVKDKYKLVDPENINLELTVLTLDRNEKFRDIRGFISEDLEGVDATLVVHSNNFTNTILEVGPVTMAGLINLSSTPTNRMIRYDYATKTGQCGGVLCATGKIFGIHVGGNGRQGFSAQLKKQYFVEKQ
Protocol: as §1
Supplementary file pone.0129103.s004.tif: S4 Fig Comparison of SVV 3C^pro- L/VP4.1 Substrate Specificity to Selected Picornavirus Protease-Substrate Pairs. A. Substrates L/VP4.1 (labeled SVV), HRV, and Coxsackievirus (CAV) 2C/3A substrate (labeled CAV) with amino acid sequence MEALFQ↓GP were incubated with 250 nM SVV 3C^pro (black data points), HRV 3C^pro (blue data points), or CAV 3C^pro (red data points) for 3 hours at 30°C. CAV 3C^pro was cloned, overexpressed, and purified using the same methods described for SVV 3C^pro in the Methods section. The decrease in FRET was measured in real time using a fluorimeter and data was converted to display fraction of substrate converted to hydrolyzed substrate over time. Data points represent the average of three replicates at each time point. […]

[2] = molecular target: T2, SVV-001 3C^pro produced during SVV-001 infection of NCI-H446 cells; assay: FRET substrate cellular assay (SVV-001 infected NCI-H446 cells); assay type: cell-based, Seneca Valley Virus (SVV-001); details: FP substrate 200 nM, NCI-H446 cells after 8 h SVV-001 infection, 3 h at 37°C
Protocol: as §2
Cells (1.6 × 10^7) were plated on a 150 mm cell culture dish (Corning) and allowed to recover overnight at 37°C. Each plate was inoculated with SVV-001 at the TCID50 and infected cells were incubated at 37°C for 8 h. After aspiration of the media, cells were mechanically lifted from the plate in phenol-red free RPMI 1640 media (Gibco) and pelleted by centrifugation. […] During the substrate incubation the change in FRET was measured with a Tecan Safire fluorimeter as described above. Conversion of the L/VP4.1 substrate to cleaved substrate was calculated by dividing the change in the FRET ratio at each time point by the total change in the FRET ratio corresponding to complete cleavage of the substrate. The conversion of the NHL substrate was similarly determined by dividing the change in the FRET ratio of the NHL at each time point by the total change in the FRET ratio of the L/VP4.1 substrate corresponding to complete cleavage. […]

CAV 3C^pro = assay: FRET substrate cleavage assay with CAV 3C^pro; assay type: biochemical, Coxsackie A virus (CAV); details: 250 nM CAV 3C^pro, 3 hours at 30°C
Protocol: Supplementary file pone.0129103.s004.tif: S4 Fig Comparison of SVV 3C^pro- L/VP4.1 Substrate Specificity to Selected Picornavirus Protease-Substrate Pairs. A. Substrates L/VP4.1 (labeled SVV), HRV, and Coxsackievirus (CAV) 2C/3A substrate (labeled CAV) with amino acid sequence MEALFQ↓GP were incubated with 250 nM SVV 3C^pro (black data points), HRV 3C^pro (blue data points), or CAV 3C^pro (red data points) for 3 hours at 30°C. CAV 3C^pro was cloned, overexpressed, and purified using the same methods described for SVV 3C^pro in the Methods section. The decrease in FRET was measured in real time using a fluorimeter and data was converted to display fraction of substrate converted to hydrolyzed substrate over time. Data points represent the average of three replicates at each time point. B. Heat map depicting relative rates of cleavage for protease-substrate pairs compared to the native protease-substrate pair. (TIF) Click here for additional data file.

[3] = FRET fusion protein substrate, 250 nM SVV-001 3C^pro
[4] = NCI-H446 cells after 8 hour SVV-001 infection

With “IVMELQGP [L/VP4.4, L/VP4.1 FRET substrate with P4 Y→M substitution]” the kcat/KM (SVV-001 3C^pro; 250 nM SVV-001 3C^pro) was 10344 M⁻¹ s⁻¹, the “cleavage less efficient than the L/VP4.1 Pro variant” value (SVV-001 3C^pro; [3]) was 40% and the “Relative to WT” value (SVV-001 3C^pro) was 5.3.
With “KLFKMQGP [2B/2C, endogenous SVV-001 cleavage site KLFKMQGP cloned between CyPet and YPet as FRET fusion protein substrate]” the kcat/KM (SVV-001 3C^pro; 250 nM SVV-001 3C^pro) was 1204 ± 146 M⁻¹ s⁻¹ and 1204 M⁻¹ s⁻¹ and the “cleavage by SVV-001 3C^pro (result in words)” value (shortened to “cleavage by SVV-001 3C^pro”) (SVV-001 3C^pro; 250 nM SVV-001 3C^pro) was “efficiently cleaved”.
For “VYELQGP [L/VP4.5, P6 truncation of L/VP4.1 FRET substrate]”, the kcat/KM (SVV-001 3C^pro; 250 nM SVV-001 3C^pro) was 9839 M⁻¹ s⁻¹, the “decrease of turnover efficiency of cleavage from L/VP4.1” value (SVV-001 3C^pro; [3]) was roughly 2 fold and the “Relative to WT” value (SVV-001 3C^pro) was 5.1.
For “IVYELQ↓SP [L/VP4.9, P1’ GN→SP substituted form of L/VP4 (IVYELQ↓SP) cloned between CyPET and YPET]”, the “cleavage by SVV-001 3C^pro” value (SVV-001 3C^pro; 250 nM SVV-001 3C^pro) was “increased turnover efficiency over L/VP4, but was inferior to L/VP4.1”.
In the case of “IVFELQGP [L/VP4.3, L/VP4.1 FRET substrate with P4 Y→F substitution]”, the kcat/KM (SVV-001 3C^pro; 250 nM SVV-001 3C^pro) is reported as 12160 M⁻¹ s⁻¹, the “cleavage less efficient than the L/VP4.1 Pro variant” value (SVV-001 3C^pro; [3]) is reported as 30% and the “Relative to WT” value (SVV-001 3C^pro) is reported as 6.3.
In the case of “CPQ2-IVYELQGP-K(5FAM)-KK-NH2 [L/VP4.1 FQ peptide]”, the “initial rate of reaction, SVV infected cells” value ([1]; NCI-H446 cells after 8 hour SVV-001 infection, 37°C, first 10 minutes, averaged from 3–4 experiments, SD) is reported as 0.446 ± 0.0056 pmol/s, the “cleavage (increase in fluorescence) with SVV-001 infected cells” value [1, 4] is reported as “significant increase in fluorescence” and the “initial rate of reaction, uninfected cells” value ([1]; uninfected NCI-H446 cells, 37°C, first 10 minutes, averaged from 3–4 experiments, SD) is reported as 0.168 ± 0.0025 pmol/s. For the same substance, the “cleavage (increase in fluorescence) with uninfected cells” value ([1]; uninfected NCI-H446 cells) was “did not show an appreciable increase in fluorescence”, the “change in fluorescence relative to plasma alone” value (Plasma stability assay) was “no significant change in fluorescence” and the “stability in human plasma (conclusion)” value (Plasma stability assay; fluorescence read-out) was “stable”.
In the case of “CPQ2-GGSGGS-K(5FAM)-KK-NH2 [NHL FQ peptide, non-hydrolysable linker peptide CPQ2-GGSGGS-K(5FAM)-KK-NH2, negative control, reference compound]”, the “cleavage (increase in fluorescence) with SVV-001 infected cells” value [1, 4] is reported as “not cleaved” and the “cleavage (increase in fluorescence) with uninfected cells” value ([1]; uninfected NCI-H446 cells) is reported as “not cleaved”.
In the case of “IVYELQGP [L/VP4.1, L/VP4 with Q↓GP (P2’ N→P substitution), FRET fusion protein substrate]”, the kcat/KM (SVV-001 3C^pro; 250 nM SVV-001 3C^pro) is reported as 17446 ± 2203 M⁻¹ s⁻¹ and 17446 M⁻¹ s⁻¹, the “increase of kcat/KM relative to L/VP4” value (SVV-001 3C^pro; [3]) is reported as “approximately 9 fold” and the “Relative to WT” value (SVV-001 3C^pro) is reported as 9.0. The “turnover by non-native 3C protease (HRV 3C^pro)” value (HRV 3C^pro; FRET substrate, 250 nM HRV 3C^pro, 3 hours at 30°C) was “no turnover”, the “loss of FRET (cleavage) with SVV-001 infected cells” value [2] was “Loss of FRET” and the “turnover by non-native 3C protease (CAV 3C^pro)” value (CAV 3C^pro) was “no turnover”.
With “IVYELQGN [L/VP4, endogenous SVV-001 3C^pro cleavage site IVYELQGN cloned between CyPet and YPet as FRET fusion protein substrate]” the kcat/KM (SVV-001 3C^pro; 250 nM SVV-001 3C^pro) was 1932 ± 183 M⁻¹ s⁻¹ and 1932 M⁻¹ s⁻¹ and the “cleavage by SVV-001 3C^pro” value (SVV-001 3C^pro; 250 nM SVV-001 3C^pro) was “efficiently cleaved”.
In the case of “GGSGGS [NHL, non-hydrolysable linker FP substrate (GGSGGS), negative control, reference compound]”, the “loss of FRET (cleavage) with SVV-001 infected cells” value [2] is reported as “did not show a loss of FRET” and the “change in fluorescence relative to plasma alone” value (Plasma stability assay) is reported as “no significant change in fluorescence”.
With “YELQGP [L/VP4.6, P5/P6 truncation of L/VP4.1 FRET substrate]” the kcat/KM (SVV-001 3C^pro; 250 nM SVV-001 3C^pro) was 1939 M⁻¹ s⁻¹ and the “Relative to WT” value (SVV-001 3C^pro) was 1.0.
For “IVYEPQGP [L/VP4.2, L/VP4.1 FRET substrate with P2 L→P substitution]”, the “cleavage by SVV-001 3C^pro” value (SVV-001 3C^pro; 250 nM SVV-001 3C^pro) was “not efficiently cleaved in 3 hours”.
For “LEVLFQGP [HRV, optimized human rhinovirus 3C^pro FP substrate (LEVLFQGP), positive control]”, the kcat/KM (HRV 3C^pro; CyPet/YPet FRET fusion protein substrate 200 nM, recombinant HRV 3C^pro, PBS pH 7.4, 30°C, 3 h, average of 5–7 experiments, uncertainty SD) was 5079 ± 528 M⁻¹ s⁻¹ and 5079 M⁻¹ s⁻¹ and the “kcat/KM higher than either SVV FP substrate (L/VP4, 2B/2C)” value (HRV 3C^pro; HRV FP substrate with HRV 3C^pro versus SVV FP substrates with SVV-001 3C^pro) was 3-4 fold.
